# Experimental data taken from patent US8895746B2 (University of Central Florida Research Foundation, Inc., priority 2009, dated 2014).
# Read-outs that look alike come from different tables or passages of the source. Square brackets hold non-standard residues; d marks the D form. Ends that are not written are not given here. Peptide text beside a SMILES is read from it. pY = N[C@@H](Cc1ccc(OP(=O)(O)O)cc1)C(=O)O
# Assays:
# [1] = molecular target: T1, Stat3 (Mus musculus, UniProt P42227); assay: Fluorescence Polarization assay, Stat3 binding to 5-carboxyfluorescein-GpYLPQTV-NH2 probe; parameters: Coding regions for the murine Stat3 protein; made in house; host or cells: E. coli BL21(DE3); species or system murine
# Experimental: (§1) Coding regions for the murine Stat3 protein and Stat3 SH2 domain were amplified by PCR and cloned into vectors pET-44 Ek/LIC (Novagen) and pET SUMO (Invitrogen), respectively.
# Fluorescence Polarization (FP) Assay was conducted as previously reported (23), with some modification using the phospho-peptide, 5-carboxyfluorescein-GpYLPQTV-NH2 (phosphorylated SEQ ID NO:7) (where pY represents phospho-Tyr) as probe and Stat3. The FP assay was used to evaluate the binding of agents to Stat3 and to determine the ability to disrupt the Stat3:pTyr peptide interaction. A fixed concentration of the fluorescently-labeled peptide probe (10 nM) was incubated with increasing concentration of the Stat3 protein for 30 min at room temperature in the buffer, 50 mM NaCI, 10 mM HEPES, 1 mM EDTA, 0.1% Nonidet P-40, and the fluorescent polarization measurements were determined using the POLARstar Omega (BMG LABTECH, Durham, N.C.), with the set gain adjustment at 35 mP. The Z′ value was derived per the equation Z′=1−(3 SDbound+3 SD free)/(mPbound−mPfree), where SD is the standard deviation and mP is the average of fluorescence polarization. In the bound state, 10 nM 5-carboxyfluorescein-GpYLPQTV-NH2 (phosphorylated SEQ ID NO:7) was incubated with 150 nM purified Stat3 protein, while the free (unbound) state was the same mixture, but incubated with an additional 10 IJM unlabeled Ac-GpYLPQTV-NH2 (phosphorylated SEQ ID NO:7). For evaluating agents, Stat3 protein (150 nM) was incubated with serial concentrations of S31-201.1066 at 30° C. for 60 min in the indicated assay buffer conditions. Prior to the addition of the fluorescence probe, the protein:S31-201.1066 mixtures were allowed to equilibrate at room temperature for 15 min. Probe was added at a final concentration of 10 nM and incubated for 30 min at room temperature following which the FP measurements were taken using the POLARstar Omega, with the set gain adjustment at 35 mP.
# The FP assay was used to further test the computational modeling prediction of the ability of S31-201.1066 to disrupt Stat3 interaction with its cognate pTyr peptide.
# [2] = molecular target: T1, Stat3; parameters: Coding regions for the murine Stat3 protein; made in house; host or cells: E. coli BL21(DE3); conditions: cited from earlier work
# [3] = molecular target: T1, Stat3; parameters: endogenous in cells; host or cells: NIH3T3/v-Src mouse fibroblasts (nuclear extract); conditions: read-out: IC50, disruption of Stat3 DNA-binding activity in vitro; previously reported (22); cited from earlier work
# [4] = molecular target: T2, His-tagged Stat3 (Mus musculus, UniProt P42227); assay: Surface Plasmon Resonance analysis of binding to immobilized His-tagged Stat3; parameters: species or system murine
# T2 construct: Coding regions for the murine Stat3 protein; made in house; host or cells: E. coli BL21(DE3)
# Source text: as §1
# Clones were sequenced to verify the correct sequences and orientation. His-tagged recombinant proteins were expressed in BL21(DE3) cells, and purified on Ni-ion sepharose column.
# SensiQ and its analysis software Qdat (ICX Technologies, Oklahoma City, Okla.) were used to analyze the interaction between agents and the Stat3 protein and to determine the binding affinity. Purified Stat3 was immobilized on a HisCap Sensor Chip by injecting 50 µg/ml of Stat3 onto the chip. […] The association and dissociation rate constants were calculated using the Qdat software. The ratio of the association and dissociation rate constants was determined as the affinity (KD).
# To provide definitive evidence of direct binding to Stat3, biophysical studies were performed. H1s-tagged Stat3 protein (or SH2 domain; 50 ng) was immobilized on a Ni-NTA sensor chip surface for Surface Plasmon Resonance analysis of the binding of 531201.1066 as the analyte. Association and dissociation measurements were taken and the binding affinity of S31-201.1066 for Stat3 was determined using Qdat software.
# [5] = molecular target: T1, Stat3; assay: Stat3 DNA-binding assay in vitro (EMSA, hSIE probe), nuclear extracts of NIH3T3/v-Src; type: biochemical; parameters: endogenous in cells; host or cells: NIH3T3/v-Src mouse fibroblasts (nuclear extract); conditions: 30 min pre-incubation at room temperature, read-out: IC50, inhibition of Stat3 DNA-binding activity in vitro
# Experimental: Nuclear extract preparations and electrophoretic mobility shift assay (EMSA) were carried out as previously described (28,33). […] Except where indicated, nuclear extracts were pre-incubated with compound for 30 min at room temperature prior to incubation with the radiolabeled probe for 30 min at 30° C. before subjecting to EMSA analysis.
# [6] = tested on: NIH3T3/v-Src, MDA-MB-231 and Panc-1 cells; conditions: previously reported (18); cited from earlier work
# T1 sequence (P42227 whole entry, the tested form may be a part): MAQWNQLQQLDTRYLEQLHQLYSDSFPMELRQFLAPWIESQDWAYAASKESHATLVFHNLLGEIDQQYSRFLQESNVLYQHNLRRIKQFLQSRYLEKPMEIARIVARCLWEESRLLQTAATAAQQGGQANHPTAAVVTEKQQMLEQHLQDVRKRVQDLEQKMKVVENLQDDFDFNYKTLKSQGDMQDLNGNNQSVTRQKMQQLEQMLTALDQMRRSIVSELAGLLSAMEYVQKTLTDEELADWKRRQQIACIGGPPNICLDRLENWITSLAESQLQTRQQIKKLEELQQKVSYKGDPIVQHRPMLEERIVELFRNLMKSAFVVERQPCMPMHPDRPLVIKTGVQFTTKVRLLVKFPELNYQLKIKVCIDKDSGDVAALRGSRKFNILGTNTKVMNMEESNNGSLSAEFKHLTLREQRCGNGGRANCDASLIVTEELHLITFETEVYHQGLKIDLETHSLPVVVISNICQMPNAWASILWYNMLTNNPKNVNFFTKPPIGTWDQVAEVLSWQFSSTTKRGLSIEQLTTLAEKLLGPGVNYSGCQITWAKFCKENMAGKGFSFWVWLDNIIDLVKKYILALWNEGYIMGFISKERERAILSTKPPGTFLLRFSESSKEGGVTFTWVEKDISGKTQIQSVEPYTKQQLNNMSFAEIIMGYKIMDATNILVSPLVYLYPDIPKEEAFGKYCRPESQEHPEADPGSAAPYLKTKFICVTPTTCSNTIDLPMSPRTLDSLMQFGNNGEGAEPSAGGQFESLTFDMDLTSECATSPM
# T2 sequence (P42227 whole entry): as the sequence (P42227 whole entry, the tested form may be a part) above
compound,measurement,setting,value
CC(C)C[C@H](NC(=O)[C@H](Cc1ccc(OP(=O)(O)O)cc1)NC(=O)CN)C(=O)N1CCC[C@H]1C(=O)N[C@@H](CCC(N)=O)C(=O)N[C@H](C(=O)N[C@H](C(N)=O)C(C)C)[C@@H](C)O [GpYLPQTV-NH2] (H-G[pY]LPQTV-NH2),IC50,"[1]; 150 nM Stat3, 10 nM probe, read-out: IC50, disruption of Stat3 binding to pTyr peptide probe",0.3 µM
same,IC50,"[2]; read-out: IC50, reported, reported (21)",0.29 ± 0.063 µM
same,IC50,"[2]; read-out: IC50 in FP assay, previously reported value, previously reported (23)",0.25 ± 0.03 µM
same,Kd,"[2]; read-out: affinity for Stat3, reported, reported (23)",0.15 ± 0.01 µM
same,IC50,[3],0.15 µM
same,Kd,[4],0.024 µM
Cc1ccc(S(=O)(=O)N(C)CC(=O)N(Cc2ccc(C3CCN(c4ccc(C#N)cc4)CC3)cc2)c2ccc(C(=O)O)c(O)c2)cc1 [S3I-201.2096],IC50,[5],45 µM
Cc1ccc(S(=O)(=O)OCC(=O)Nc2ccc(C(=O)O)c(O)c2)cc1 [S3I-201],concentration of antitumor cell activity previously reported for the lead agent,[6],100 µM
GYLPQTV-NH2 [reference compound],effect on the fluorescent polarization signal,[1]; data not shown,no evidence of effect
same,binding to Stat3 (SPR),"[4]; SPR, immobilized His-Stat3",little evidence of significant binding
